# Experimental data as given in ChEMBL document CHEMBL6115048, “Uncovering α-Selectivity for Liver X Receptor Agonists for Lipotoxic Cancer Therapies” (J Med Chem, 2025).
# Active and inactive are the calls of the source. No cut-off for these calls is given here.
# Key:
# [1] = target: T1, Vitamin D3 receptor (Homo sapiens) (UniProt P11473); test: Agonist activity at VDR (unknown origin) transfected in human HepG2 cells co-transfected with renilla reniformis luciferase reporter at 10 uM incubated for 24 hrs by dual-luciferase reporter gene assay; assay type: cell-based
# T1 sequence (whole entry): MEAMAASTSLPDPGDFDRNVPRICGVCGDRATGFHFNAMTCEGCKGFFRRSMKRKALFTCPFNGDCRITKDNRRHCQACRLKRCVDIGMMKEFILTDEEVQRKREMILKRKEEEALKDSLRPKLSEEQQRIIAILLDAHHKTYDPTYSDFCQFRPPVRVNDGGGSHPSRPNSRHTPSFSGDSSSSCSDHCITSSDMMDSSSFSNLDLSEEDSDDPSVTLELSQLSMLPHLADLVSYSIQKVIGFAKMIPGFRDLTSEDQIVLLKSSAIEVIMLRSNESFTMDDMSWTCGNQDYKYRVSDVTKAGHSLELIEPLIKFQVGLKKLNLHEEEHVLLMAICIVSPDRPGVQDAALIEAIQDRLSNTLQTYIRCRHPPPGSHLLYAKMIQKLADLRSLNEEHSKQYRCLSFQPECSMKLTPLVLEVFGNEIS
# [2] = target: T2, Nuclear receptor subfamily 1 group I member 3 (Mus musculus, UniProt O35627); test: Agonist activity at mouse CAR transfected in human HepG2 cells co-transfected with p2B6-luciferase reporter at 10 uM incubated for 24 hrs by dual-luciferase reporter gene assay; assay type: cell-based; conditions: hepg2, 24 h
# T2 sequence (O35627 whole entry): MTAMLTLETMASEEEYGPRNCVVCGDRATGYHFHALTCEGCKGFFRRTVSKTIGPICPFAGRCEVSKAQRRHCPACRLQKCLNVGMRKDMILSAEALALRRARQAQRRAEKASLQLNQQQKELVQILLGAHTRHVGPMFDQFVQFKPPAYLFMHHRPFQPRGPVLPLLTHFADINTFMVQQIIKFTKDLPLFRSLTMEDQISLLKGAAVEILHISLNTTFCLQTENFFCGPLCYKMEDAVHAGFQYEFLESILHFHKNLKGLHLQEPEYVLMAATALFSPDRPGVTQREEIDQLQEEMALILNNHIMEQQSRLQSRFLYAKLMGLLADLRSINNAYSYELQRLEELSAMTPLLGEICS
# [3] = system: Hep 3B2; test: Induction of endoplasmic reticulum (ER) stress in human Hep3B cells assessed as increase in CHOP expression measured after 3 days in presence of sorafenib by Western blot analysis; assay type: functional, cell-based; conditions: time 3.0 day
# [4] = system: Hep 3B2; test: Antiproliferative activity against human Hep3B cells assessed as reduction in cell viability at 0.01 to 100 uM measured after 5 days in presence of sorafenib and sodium oleate by CellTiter-Glo assay; assay type: functional, cell-based; conditions: dose 0.01-100 µM, time 5.0 day
# [5] = target: T3, Peroxisome proliferator-activated receptor gamma (Homo sapiens) (UniProt P37231); test: Agonist activity at PPARgamma (unknown origin) transfected in human HepG2 cells co-transfected with renilla reniformis luciferase reporter at 10 uM incubated for 24 hrs by dual-luciferase reporter gene assay; assay type: cell-based
# T3 sequence (whole entry): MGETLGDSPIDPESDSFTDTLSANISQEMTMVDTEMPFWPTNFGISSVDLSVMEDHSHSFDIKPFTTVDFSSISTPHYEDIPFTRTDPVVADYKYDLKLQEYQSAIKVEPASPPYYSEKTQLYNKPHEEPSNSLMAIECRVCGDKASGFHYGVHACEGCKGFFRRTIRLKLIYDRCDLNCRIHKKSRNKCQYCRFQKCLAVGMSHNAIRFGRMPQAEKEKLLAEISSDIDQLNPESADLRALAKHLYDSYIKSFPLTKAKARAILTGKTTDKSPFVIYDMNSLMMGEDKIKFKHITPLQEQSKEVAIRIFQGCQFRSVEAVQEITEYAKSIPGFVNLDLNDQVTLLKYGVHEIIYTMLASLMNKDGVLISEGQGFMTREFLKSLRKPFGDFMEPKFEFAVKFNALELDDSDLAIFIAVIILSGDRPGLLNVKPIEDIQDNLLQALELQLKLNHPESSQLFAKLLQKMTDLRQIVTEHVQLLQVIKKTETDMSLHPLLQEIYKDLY
# [6] = target: T4, Bile acid receptor (Homo sapiens) (UniProt Q96RI1); test: Agonist activity at FXR (unknown origin) transfected in human HepG2 cells co-transfected with renilla reniformis luciferase reporter at 10 uM incubated for 24 hrs by dual-luciferase reporter gene assay; assay type: cell-based
# T4 sequence (whole entry): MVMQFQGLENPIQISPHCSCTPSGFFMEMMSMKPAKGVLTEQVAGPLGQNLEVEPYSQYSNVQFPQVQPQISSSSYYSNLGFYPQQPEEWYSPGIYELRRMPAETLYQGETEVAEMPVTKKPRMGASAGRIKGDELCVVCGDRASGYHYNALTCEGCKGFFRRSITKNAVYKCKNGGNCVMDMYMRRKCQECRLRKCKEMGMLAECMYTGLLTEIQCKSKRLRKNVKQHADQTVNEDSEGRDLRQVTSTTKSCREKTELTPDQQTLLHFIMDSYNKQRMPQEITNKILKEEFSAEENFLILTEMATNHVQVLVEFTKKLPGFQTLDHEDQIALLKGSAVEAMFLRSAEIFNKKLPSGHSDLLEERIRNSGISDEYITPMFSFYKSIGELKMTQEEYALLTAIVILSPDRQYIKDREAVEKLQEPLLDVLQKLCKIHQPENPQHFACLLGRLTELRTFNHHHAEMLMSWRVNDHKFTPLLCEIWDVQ
smiles,measurement,setting,value
O=C1C(Nc2ccc(N3CCCCC3)cc2)=C(c2ccccc2)C(=O)N1Cc1ccccc1,Activity,[1],inactive
same,Activity,[2],Not_active
same,Activity,[3],Active
same,Activity,[4],inactive
same,Activity,[5],inactive
same,Activity,[6],inactive
